In patent US10751274B1, “Fast-acting micelle nanoparticle and cosmetic composition comprising same” (FOREST COMPANY, priority 2017, dated 2020):

System: ICR mouse skin
Assay: Mouse skin penetration experiment, Franz diffusion cell
Assay type: in vitro ADME, ICR outbred albino mice
Settings: after 24 hr
Method: In order to evaluate the transdermal penetration rate of the micelle nanoparticles of Example 1, a mouse skin penetration experiment was performed through a Franz diffusion cell using the micelle nanoparticles as a sample. The mouse skin was extracted from the back of ICR outbred albino mice (12-week-old, about 50 g, females), which were killed by cervical dislocation. The subcutaneous fat was removed from the extracted skin (1.5 cm×1.5 cm) so that the skin was not hurt, and the dermis was used without being removed. The skin was fixed between the donor and the receptor phase so that the stratum corneum part of the back skin of the prepared ICR mice faced upwards.
The transepidermal area contacting the receptor phase was 0.6362 cm^2, and the receptor phase was a mixed solution of 2.0% HCO-60 (in 20% ethanol), showing the highest solubility in the preliminary experiments. 5 ml of the receptor phase was placed in a Franz diffusion cell, and the temperature was maintained at 37.0±0.5° C. using a constant-temperature water bath. Stirring to homogeneity was performed at 150 rpm for 24 hr. 0.5 ml of each sample was applied to the transepidermal surface of the donor, after which 0.75 ml of the receptor phase was collected every 8 hr (a total of 3 times) for 24 hr through a sampling port using a 1 ml syringe and stored in a 1.5 ml tube. Immediately after collection, supplementation with the same amount of the receptor solution was conducted. As such, the collected sample was analyzed through HPLC in order to quantify […] therein.
In order to measure the amount of PhS1P remaining on the skin, unpenetrated samples were washed three times with PBS immediately after taking the skin out of the diffusion cell. […] The ethanol was evaporated to dryness, after which PhS1P was dissolved again in 0.75 ml of ethanol, and the amount of PhS1P remaining on the skin was quantified through HPLC. […]

Question: Which results are given for `CCCCCCCCCCCCCC[C@@H](O)[C@@H](O)[C@@H](N)COP(=O)(O)O` [PhS1P solution, phytosphingosine-1-phosphate]?
Answer: amount of PhS1P remaining in the stratum corneum (tape stripping): 1.81 µg; amount of PhS1P that penetrated the skin (final cumulative) (receptor phase sampled every 8 hr, 0.5 ml sample): 2.52 µg; amount of PhS1P present in the skin (tape-stripped skin): 2.72 µg
